Source: patent US20140107176A1, “METHOD OF MODULATING A PROSTATE CANCER CELL” (Agency for Science, Technology and Research, priority 2012, published 2014)

What was measured:
Type in all cases: cell-based, human
[1] = tested on: VCaP cells; experiment: Time course expression analysis of AR and ERG mRNA and protein in VCaP cells after DHT stimulation; conditions: 10 nM DHT
Experimental: (§1) FIG. 1. Androgen stimulates distinct expression and chromatin binding profiles for AR and ERG in prostate cancer cells. Time course expression analysis of AR and ERG (A) mRNA and (B) protein levels in VCaP cells after stimulation with 10 nM DHT at various time points. Error bars represent S.E.M of at least 3 independent repeats. (C) Androgen stimulates AR and ERG binding to chromatin. Hormone depleted VCaP cells were treated with 100 nM DHT for 0, 2, or 18 hrs. Cells were cross-linked with formaldehyde and chromatin was immunoprecipitated with antibodies against AR or ERG. Immunoprecipitated DNA was quantified with qPCR for specific binding sites and a randomly selected genomic location as control (ctrl) region. Error bars represent S.E.M of at least 3 independent experiments.
The human prostate cancer cell line, VCaP (American Type Culture Collection), was maintained in DMEM supplemented with 10% fetal bovine serum (FBS), sodium pyruvate, sodium bicarbonate, and penicillin/streptomycin at 37° C. under 5% CO2. Unless otherwise stated, for experiments requiring DHT (Tokyo Chemical Industry) treatment, VCaP cells were grown for 24 hours prior to stimulation in phenol red free DMEM supplemented with 10% charcoal-dextran stripped fetal bovine serum (CDFBS), sodium pyruvate, sodium bicarbonate, and penicillin/streptomycin.
Cells were harvested and total RNA was collected in TRI-reagent (Sigma) and purified with PureLink™ RNA Mini Kit (Invitrogen). Reverse transcription of RNA to cDNA was carried out using M-MLV reverse transcriptase (Promega). RNA expression levels were measured using quantitative PCR and normalized to GAPDH. The primers for cDNA quantification can be found in FIG. 9.
The antibodies used for western blot analysis include anti-AR (sc-816), anti ERG (sc-354), anti-Vinculin (sc-25336) from Santa Cruz, anti-AR (AR441) from Labvision, anti-HDAC1 (#05-100), anti-HDAC2 (#05-814) from Millipore, anti-HDAC3 (#3949) and anti-EZH2 (#3147) from Cell Signaling Technology.

[2] = tested on: VCaP cells; experiment: AR and ERG ChIP-qPCR in VCaP cells after DHT stimulation; conditions: 100 nM DHT
Experimental: as §1
(§2) ChIP assay was performed as described previously (47). Briefly, VCaP cells were fixed with 1% formaldehyde (Sigma-Aldrich) for 10 minutes prior to harvesting. Next, the cells were resuspended in SDS lysis buffer containing protease inhibitors. The lysed cells were then sonicated shearing the chromatin into 500-1000 base pairs in length. After pre-clearing with rabbit IgG (Santa Cruz Biotechnology) for 2 hours, the chromatin was immunoprecipitation overnight with the corresponding antibodies and Sepharose beads A (Zymed). After washing the beads, the captured DNA was eluted and de-crosslinked at 65° C. overnight prior to purification with QIAquick spin PCR purification kit (Qiagen). Real-time quantitative Polymerase Chain Reaction (qPCR) was carried out using the KAPA SYBR FAST qPCR kit (Kapa Biosystems).
All ChIP-qPCR primer sequences can be found in FIG. 8. […] Specifically, cells were first fixed with 2 mM DSG (Pierce) for 45 minutes prior to formaldehyde fixation. Antibodies that were used for ChIP analysis include anti-AR (sc-815x), anti-ERG (sc-353), anti-HDAC3 (sc-11417) from Santa Cruz Biotechnology, anti-HDAC1 (ab7028-50), anti-HDAC2 (ab7029-50) from Abcam, and anti-EZH2 (39933) from Active Motif.

[3] = tested on: VCaP cells; experiment: HDAC1, HDAC2, HDAC3 and EZH2 ChIP-qPCR in VCaP cells before and after DHT treatment; conditions: 100 nM DHT, 2 hrs
Experimental: FIG. 4. HDACs and EZH2 are recruited to AR binding sites. […] (B) Androgen-depleted VCaP cells were treated with either EtOH or 100 nM DHT for 2 hrs. The cells were then double crosslinked with DSG followed by formaldehyde. […] Error bars represent S.E.M of at least 3 independent experiments.
as §2
All ChIP-qPCR primer sequences can be found in FIG. 8. […] Specifically, cells were first fixed with 2 mM DSG (Pierce) for 45 minutes prior to formaldehyde fixation. […]

[4] = tested on: EZH2; experiment: Transcript levels of PSA and FKBP5 in VCaP cells after blocking EZH2 with DZNep (RT-qPCR); conditions: 3 μM DZNep, 24 or 48 hrs
Experimental: (§3) FIG. 6. Co-recruitment of ERG, HDACs, and EZH2 to ARBS attenuates AR-dependent transcription. […] (C) VCaP cells grown in full serum (top) or depleted with hormones and treated with 10 nM DHT (bottom) were subjected to varying concentrations of TSA for 24 hours. Total RNA from the treated cells were then harvested and converted to cDNA before quantifying for gene expression levels by qPCR. GAPDH was used as an internal normalization control. Error bars represent S.E.M of at least 3 independent experiments. (D) VCaP cells grown in full serum (top) or depleted with hormone and treated with 10 nM DHT to 8 hours (bottom) were subjected to 3 μM DZNep treatment for 24 (top) or 48 (bottom) hrs. Total RNA was extracted and processed as described in FIG. 6C. Error bars represent S.E.M of at least 3 independent experiments.
(§4) The human prostate cancer cell line, VCaP (American Type Culture Collection), was maintained in DMEM supplemented with 10% fetal bovine serum (FBS), sodium pyruvate, sodium bicarbonate, and penicillin/streptomycin at 37° C. under 5% CO2. […]
(§5) Cells were harvested and total RNA was collected in TRI-reagent (Sigma) and purified with PureLink™ RNA Mini Kit (Invitrogen). […] RNA expression levels were measured using quantitative PCR and normalized to GAPDH. The primers for cDNA quantification can be found in FIG. 9. […]

[5] = tested on: HDACs; experiment: Transcript levels of PSA and FKBP5 in VCaP cells after blocking HDACs with TSA (RT-qPCR); conditions: 24 hours
Experimental: as §3, §4, §5

[6] = tested on: VCaP cells; experiment: Matrigel invasion assay with siRNA-treated VCaP cells; conditions: silencing of VCL, 48 hrs
Experimental: (§6) FIG. 7. ERG, HDACs, and EZH2 promote cell invasiveness and inhibit epithelial differentiation by antagonizing AR-dependent transcription of cell adhesion molecules. […] Oncomine Molecular Concept Map analysis was performed to compare ERG-associated (5 kb from TSS) androgen induced genes (>2 fold) that were identified in our study against clinical prostate cancer gene signatures available in the Oncomine database. The criteria for significant associations between node is defined as OD>=2; p-value <le-4. (B) Boxplot showing the relative mRNA expression of VCL in clinical prostate samples from the Yu et al (49) study, which has been deposited in the Oncomine database. […] (G) The effect of AR and ERG silencing on VCL gene expression was analyzed as described in FIG. 3D-E. Error bars represent S.E.M of at least 3 independent experiments. (H) The effect of TSA on the androgen-dependent gene regulation of VCL was analyzed as described in FIG. 6C. […] (I) The effect of DZNep on the androgen-dependent gene regulation of VCL was analyzed as described in FIG. 6D. […] The number of cells per high power field (HPF) that passed through the transwell was counted. […] (K) The effect of VCL suppression on cancer cell survival was assessed by flow cytometry. siRNA transfected cells were fixed prior staining with propidium iodide for flow analysis. […]

[7] = tested on: VCaP cells; experiment: Flow cytometry of siRNA transfected VCaP cells (subG1 cell death, BrdU proliferation); conditions: silencing of VCL
Experimental: as §6

C[C@]12CCC(=O)C[C@@H]1CC[C@@H]1[C@@H]2CC[C@]2(C)[C@@H](O)CC[C@@H]12 [DHT]
mRNA and protein levels of ERG [1]: up-regulated | time of peak ERG RNA level [1]: 6 h | time of peak ERG protein level [1]: 12 h | AR protein level ([1]; across time): remained relatively constant | level of AR mRNA ([1]; across time): repressed | AR binding to the enhancer AR binding site (ARBS) of PSA ([2]; 2 hrs): recruited strongly | ERG recruitment to the ARBS of PSA and the ERGBS associated with PLA1A ([2]; 2 hrs): recruited | AR binding to the enhancer AR binding site (ARBS) of PSA ([2]; 18 hrs): reduced significantly | ERG recruitment to the ARBS of PSA and the ERGBS associated with PLA1A ([2]; 18 hrs): further enhanced | recruitment of HDAC1, HDAC2, HDAC3 and EZH2 to AR and ERG co-localized binding sites [3]: in most cases enhanced

Nc1nccc2c1ncn2[C@@H]1C=C(CO)[C@@H](O)[C@H]1O [DZNep, 3-deazaneplanocin A]
expression of PSA and FKBP5 [4]: enhanced

CC(/C=C/C(=O)NO)=C\[C@@H](C)C(=O)c1ccc(N(C)C)cc1 [TSA, Trichostatin A]
PSA and FKBP5 transcript levels ([5]; high concentrations of TSA): repressive | PSA and FKBP5 transcript levels ([5]; low concentrations of TSA): enhanced

siVCL: siRNA against VCL synthesized from 1stBase, rCrUrGrGrCrUrUrGrCrArGrArUrCrCrArArArUrUrU [SEQ ID NO.: 5] (CUGGCUUGCAGAUCCAAAUUU; RNA, backbone not given here)
invasiveness of VCaP cells [6]: increased | cell death (subG1 phase) [7]: not due to differences | cell proliferation (S phase, BrdU) [7]: not due to differences
